Results from publication PMC6162207, “Identification and pharmaceutical evaluation of novel frog skin-derived serine proteinase inhibitor peptide–PE-BBI (Pelophylax esculentus Bowman-Birk inhibitor) for the potential treatment of cancer” (Scientific Reports, 2018).
Positions of bridges follow the written chain, without caps; N, C: chain ends. Residues, ends and D or L forms follow the SMILES beside them.

Experiments:
[1] = system: Staphylococcus aureus (NCTC 10788); assay: Antimicrobial MIC assay, S. aureus; format: cell-based; conditions: 1 to 512 μM, MHB, 18 h, 37 °C, 6 replicates, absorbance 550 nm; data not shown
Procedure: (§1) Gram-negative bacteria Escherichia coli (NCTC 10418); Gram-positive bacteria Staphylococcus aureus (NCTC 10788) and pathogenic yeast Candida albicans (NCYC 1467) were used in minimum inhibitory concentration (MIC) assays to investigate the board antimicrobial activity ability of synthetic PE-BBI. Microorganisms involved in MIC assays were cultured in MHB for 16–18 h. Then sub-cultured for 2~4 h to allow the microorganism to enter the logarithmic growth phase. Subsequently, proper density of bacterial (1 × 10^6 colony forming units (cfu)/mL) and fungi (1 × 10^5 cfu/mL) were seeded into 96 well plate. Different concentration ranged from 1 to 512 μM of PE-BBI were added into each well (6 replicates per concentration). The absorbance value at 550 nm was detected using a Synergy HT plate reader (Biotech, Minneapolis, MN, USA) after 18 h incubation in 37 °C incubator[50].

[2] = biological target: T1, trypsin from bovine pancreas (Bos taurus, UniProt P00760); assay: Trypsin inhibitory assay; format: biochemical
T1 construct: purchased Sigma/Aldrich, Poole, Dorset, UK; host or cells: bovine pancreas
T1 sequence (P00760 24-246): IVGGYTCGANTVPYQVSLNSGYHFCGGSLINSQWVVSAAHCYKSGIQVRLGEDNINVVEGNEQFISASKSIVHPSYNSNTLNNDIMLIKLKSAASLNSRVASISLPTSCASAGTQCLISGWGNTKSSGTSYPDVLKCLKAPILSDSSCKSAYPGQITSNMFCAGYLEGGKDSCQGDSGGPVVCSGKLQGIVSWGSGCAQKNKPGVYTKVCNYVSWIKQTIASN

[3] = system: Escherichia coli (NCTC 10418); assay: Antimicrobial MIC assay, E. coli; format: cell-based; conditions: 1 to 512 μM, MHB, 18 h, 37 °C, 6 replicates, absorbance 550 nm; data not shown
Procedure: as §1

[4] = system: rat-tail artery smooth muscle; set-up: species or system rat (female Wistar)
Procedure: Female Wistar rats (250–300 g) were applied in this study and sacrificed followed the principle of institutional animal experimentation ethics and UK animal research guidelines. All of the procedures involved in this study was approved by IACUC of Queen’s University Belfast. Rat-tail artery and bladder were isolated and located in pre-chilled Kreb’s solution equilibrated with 95% O2, 5% CO2[51]. Isolated muscle strips (2–10 mm) were vertically suspended in a 2 mL organ bath containing 37 °C Kreb’s solution. The Kreb’s solution was constant refreshing by constant flowing (2 mL/min) during the assay. Potassium chloride (KCL, 60 mM) was used to test for viability of muscle strips after 20 min equilibration. After the smooth muscle strip were prepared, the synthetic replicates of PE-BBI (10^−11 to 10^−5 M) was used to quantify the myogenic potency on rat-tail artery and bladder smooth muscle. Between each concentration, the smooth muscle strip was washed 5 mins and re-equilibration for another 5 min. Each data point was repeated on at least five independent muscle strips. The tension change was amplified and recorded by a PowerLab System (AD Instruments Pty Ltd.)[51].

[5] = system: Candida albicans (NCYC 1467); assay: Antimicrobial MIC assay, C. albicans; format: cell-based; conditions: 1 to 512 μM, MHB, 18 h, 37 °C, 6 replicates, absorbance 550 nm; data not shown
Procedure: as §1

CC[C@H](C)[C@@H]1NC(=O)[C@H](CO)NC(=O)[C@H](CCCCN)NC(=O)[C@H]([C@@H](C)O)NC(=O)[C@H](Cc2c[nH]c3ccccc23)NC(=O)[C@@H](NC(=O)CNC(=O)[C@H](CCCCN)NC(=O)[C@H](CC(C)C)NC(=O)[C@H](C)NC(=O)CN)CSSC[C@@H](C(=O)N[C@@H](CCCCN)C(N)=O)NC(=O)[C@@H]2CCCN2C(=O)[C@H](CCCCN)NC(=O)[C@@H]2CCCN2C(=O)[C@@H]2CCCN2C1=O [PE-BBI] (H-GALKGCWTKSIPPKPCK-NH2; disulfide 6-16; N-terminus assumed)
antimicrobial activity (MIC), S. aureus [1]: didn’t show any obviously antibacterial activity even in the highest concentration (512 μM)
Ki [2]: 310 ± 72 nM
mode of trypsin inhibition ([2]; PE-BBI 0.1–100 µM): competitive reversible trypsin inhibitory activity
antimicrobial activity (MIC), E. coli [3]: didn’t show any obviously antibacterial activity even in the highest concentration (512 μM)
EC50 [4]: 8.79 nM
antimicrobial activity (MIC), C. albicans [5]: didn’t show any obviously antibacterial activity even in the highest concentration (512 μM)
